These are literature values, as cited in patent US11273137B2, “Methods and compositions to prevent and treat disorders associated with mutations in the ODC1 gene” (Board of Trustees of Michigan State University, priority 2018, dated 2022).

Data set [1] concerns transgenic mice overexpressing c-terminally deleted ODC (p.P427X).
Setting [2] is: transgenic mice with c-terminally deleted ODC.

Consider `NCCC[C@](N)(C(=O)O)C(F)F` [DFMO, alpha-difluoromethylornithine], for which the water solubility entry was “water soluble”. In addition, in data set [1] (heterozygous transgenic mice with c-terminal 34 aa ODC deletion targeted to the skin), the “phenotypic changes (skin and hair follicle abnormalities, alopecia)” value is given as “reversible”. In data set [1] (mice with complete hair loss), the hair growth entry is reported as “partially restored hair growth”. Moreover, in data set [1] (setting [2]), the hair loss entry is “prevented hair loss” and the “reappearance of normal follicles” value is listed as “activated reappearance of normal follicles”.
